Literature values as cited in US20090239878A1, “COMBINATIONS OF (A) AN ATP-COMPETITIVE INHIBITOR OF C-ABL KINASE ACTIVITY WITH (B) TWO OR MORE OTHER ANTINEOPLASTIC AGENTS” (priority 2002, published 2009).

Columns and labels:
[1] = tested on: CEM/ara-C/I monoclonal clone; conditions: ara-C resistant cell line versus CEM/0
[2] = tested on: platelet-derived growth factor receptor; conditions: preclinical studies
c-kit receptor = c-kit receptor (Homo sapiens, UniProt P10721); conditions: preclinical studies
c-kit receptor, sequence (P10721 26-976): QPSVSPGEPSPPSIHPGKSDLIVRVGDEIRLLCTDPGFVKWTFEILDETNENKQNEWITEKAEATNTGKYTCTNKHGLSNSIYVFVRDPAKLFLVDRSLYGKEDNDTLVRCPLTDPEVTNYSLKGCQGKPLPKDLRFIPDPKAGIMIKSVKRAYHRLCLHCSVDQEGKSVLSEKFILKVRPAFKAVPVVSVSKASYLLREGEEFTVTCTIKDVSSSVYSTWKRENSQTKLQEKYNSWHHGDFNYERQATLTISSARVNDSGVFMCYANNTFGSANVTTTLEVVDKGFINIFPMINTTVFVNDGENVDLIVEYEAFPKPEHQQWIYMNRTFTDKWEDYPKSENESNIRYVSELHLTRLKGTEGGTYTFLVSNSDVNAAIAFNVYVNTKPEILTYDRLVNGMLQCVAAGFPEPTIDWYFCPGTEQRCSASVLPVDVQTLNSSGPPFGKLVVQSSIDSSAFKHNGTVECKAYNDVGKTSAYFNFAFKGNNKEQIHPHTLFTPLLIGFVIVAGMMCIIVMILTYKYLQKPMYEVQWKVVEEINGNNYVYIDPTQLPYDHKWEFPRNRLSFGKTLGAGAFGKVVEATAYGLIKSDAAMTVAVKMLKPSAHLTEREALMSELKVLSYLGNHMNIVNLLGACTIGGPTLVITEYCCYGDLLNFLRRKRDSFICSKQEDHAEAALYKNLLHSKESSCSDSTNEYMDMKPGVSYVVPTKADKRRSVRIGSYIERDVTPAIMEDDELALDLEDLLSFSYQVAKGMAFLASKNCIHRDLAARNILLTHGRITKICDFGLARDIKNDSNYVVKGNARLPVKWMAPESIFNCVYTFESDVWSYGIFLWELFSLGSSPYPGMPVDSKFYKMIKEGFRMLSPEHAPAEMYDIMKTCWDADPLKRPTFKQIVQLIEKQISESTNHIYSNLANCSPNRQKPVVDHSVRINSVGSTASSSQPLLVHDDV

Compound | sensitivity to ara-C relative to wild type [1] | inhibition of kinase activity [2] | inhibition of kinase activity (c-kit receptor)
Nc1ccn([C@@H]2O[C@H](CO)[C@@H](O)[C@@H]2O)c(=O)n1 [ara-C, cytosine arabinoside] | less than 1 % of the wild type CEM/0 cell line |  | 
N-{5-[4-(4-methyl-piperazino-methyl)-benzoylamido]-2-methylphenyl}-4-(3-pyridyl)-2-pyrimidine-amine [STI571] |  | inhibits the kinase activities | inhibits the kinase activities
